Measured values from patent publication US6358982B1, “Heterocyclyl sulphonamide derivatives” (Eli Lilly and Company, priority 1998, dated 2002).

Target: T1, human GluR4B receptor (Homo sapiens, UniProt P48058)
T1 construct: expressed in transfected cells
Assay: potentiation of agonist-induced excitability of human GluR4B receptor expressed in HEK 293 cells (Fluo-3 calcium fluorescence)
Type: cell-based
Settings: human GluR4B expressed in HEK 293 cells
Source text: The ability of compounds of formula I to potentiate glutamate receptor-mediated response may be determined using fluorescent calcium indicator dyes (Molecular Probes, Eugene, Oreg., Fluo-3) and by measuring glutamate-evoked efflux of calcium into GluR4 transfected HEK293 cells, as described in more detail below.
In one test, 96 well plates containing confluent monolayers of HEK cells stably expressing human GluR4B (obtained as described in European Patent Application Publication Number EP-A1-583917) are prepared. The tissue culture medium in the wells is then discarded, and the wells are each washed once with 200 μl of buffer (glucose, 10 mM, sodium chloride, 138 mM, magnesium chloride, 1 mM, potassium chloride, 5 mM, calcium chloride, 5 mM, N-[2-hydroxyethyl]-piperazine-N-[2-ethanesulfonic acid], 10 mM, to pH 7.1 to 7.3). […]
Each test is then performed as follows. […] A second fluorescent reading is taken after 5 minutes incubation. 15 μl of 400 μM glutamate solution is then added to each well (final glutamate concentration […]), and a third reading is taken. The activities of test compounds and cyclothiazide solutions are determined by subtracting the second from the third reading (fluorescence due to addition of glutamate in the presence or absence of test compound or cyclothiazide) and are expressed relative to enhance fluorescence produced by 100 μM cyclothiazide.

T1 sequence (P48058 21-902): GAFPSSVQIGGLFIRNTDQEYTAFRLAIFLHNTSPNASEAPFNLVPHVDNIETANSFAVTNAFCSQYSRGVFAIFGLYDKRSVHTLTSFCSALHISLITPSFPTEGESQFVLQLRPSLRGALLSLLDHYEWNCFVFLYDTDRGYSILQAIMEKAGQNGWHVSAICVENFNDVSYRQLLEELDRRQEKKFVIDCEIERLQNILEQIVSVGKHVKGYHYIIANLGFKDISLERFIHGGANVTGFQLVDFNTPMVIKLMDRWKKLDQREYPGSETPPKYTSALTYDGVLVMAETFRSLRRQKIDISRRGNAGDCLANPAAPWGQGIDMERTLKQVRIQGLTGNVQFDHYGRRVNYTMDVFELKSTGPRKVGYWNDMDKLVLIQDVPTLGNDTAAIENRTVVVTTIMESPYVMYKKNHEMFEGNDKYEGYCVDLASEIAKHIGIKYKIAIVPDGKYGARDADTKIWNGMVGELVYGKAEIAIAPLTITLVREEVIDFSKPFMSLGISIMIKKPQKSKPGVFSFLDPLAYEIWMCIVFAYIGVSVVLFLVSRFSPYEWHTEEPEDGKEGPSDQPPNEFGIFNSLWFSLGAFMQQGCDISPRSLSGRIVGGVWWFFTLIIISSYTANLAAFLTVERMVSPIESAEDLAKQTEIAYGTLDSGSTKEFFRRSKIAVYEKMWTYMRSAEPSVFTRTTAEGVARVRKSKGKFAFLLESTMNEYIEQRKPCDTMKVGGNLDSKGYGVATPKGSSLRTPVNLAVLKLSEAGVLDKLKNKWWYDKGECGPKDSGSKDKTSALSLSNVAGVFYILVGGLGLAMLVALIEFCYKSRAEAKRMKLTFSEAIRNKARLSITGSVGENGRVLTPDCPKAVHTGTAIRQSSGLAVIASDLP

With `NS(=O)(=O)c1cc2c(cc1Cl)NC(C1CC3C=CC1C3)NS2(=O)=O` (stereo not shown) [cyclothiazide] the “potentiation of agonist-induced excitability of human GluR4B receptor” value was “potentiate”.
